Consider 4 compounds from publication PMC10870044, “The Interplay Between HIF‐1α and EZH2 in Lung Cancer and Dual‐Targeted Drug Therapy” (Advanced Science, 2023).

For one test, the system named is multiple myeloma. The arrangement: method as in PMID 20499131, PMID 17947482, PMID 16832603, PMID 16197617. The conditions noted are these: sixty patients with multiple myeloma, phase II study; ref [15], [16], [17], [18]; cited from earlier work.
In the next test the test system is A549/DR cells. In words: Annexin V-FITC/PI apoptosis assay. The format is cell-based, Human. The conditions noted are these: 48 h exposure. Here is the method:
(§1) After incubation for 48 h, cells were harvested by centrifugation and washed twice in PBS. Then stained the cells according to the FITC Annexin V Apoptosis Detection Kit II (BD Biosciences, USA). Control cells stained with Annexin‐V or PI alone were used to compensate for flow cytometric analysis. Viable cells were those with both Annexin‐V and PI‐double negative staining. Annexin‐V‐positive and PI‐negative cells were defined as early apoptotic cells, and Annexin‐V and PI‐double‐positive cells were defined as late apoptotic cells.

In another test the test system is H460/DR cells. Put plainly: Annexin V-FITC/PI apoptosis assay. Format: cell-based, Human. The conditions noted are these: 48 h exposure. Here is the method: as §1
The subject of test [1] is A549/DR and H460/DR cells. Put plainly: CCK-8 cytotoxicity, resistance ratio in dual drug-resistant cells. The conditions noted are these: A549/DR and H460/DR vs parental. Format: cell-based, Human. Here is the method: Cells (4 × 10^3per well) were seeded into a 96‐well plate and cultured at 37°C in a 5% CO2 incubator. After 24 h, different concentrations of 2‐ME2 were put into wells which ranged from 0.01 to 100 µM with a minimum of three technical replicates. After 72 h, 10 µl CCK‐8 (MCE, NY, USA) was added to each well and incubated for an additional 4 h at 37°C in a 5% CO2 incubator. Then, […]. The optical density values were measured at 450 nm using a microplate reader (Molecular Devices, San Jose, CA, USA).

Test [2] concerns A549/2‐ME2 and H460/2‐ME2 cells. Put plainly: Epigenetics Compound Library screen in HIF-1 inhibitor-resistant cells. The format is cell-based, Human.
The test system of another test is HIF‐1α. Put plainly: Western blot of HIF-1α after EZH2 inhibitors. The format is cell-based. As to conditions: compared to the control group. In general terms: In western blotting, separated proteins are transferred to a membrane and probed.
For a further test, the system named is HIF‐1. Put plainly: HIF-1 luciferase reporter gene assay (U251-HRE / U251-PGL3). The format is cell-based. As to conditions: hypoxic environments, compared to the control group. How it is done: HIF‐1 activity was assessed in U251‐HRE and U251‐PGL3 using a 96‐well format. Cells were rinsed twice with ice‐cold PBS, lysed with 200 µl of passive lysis buffer (Promega, Wisconsin, USA), and incubated at room temperature for 10 min. Lysates were centrifuged and stored at −80°C until assayed. Luciferase assays were conducted by pipetting 20 µl of cell lysate into each well of a 96‐well plate and analyzed immediately after adding the luciferase reagent (Promega) in a multi‐mode microplate reader (Centro LB960, Berthold, Germany).

With `COc1cc2c(cc1O)CC[C@@H]1[C@@H]2CC[C@]2(C)[C@@H](O)CC[C@@H]12` [2‐ME2, 2‐methoxy estradiol], the “objective response in patients” value in the test on multiple myeloma was “no objective response”. The apoptotic cell population result in the test on A549/DR cells and in the test on H460/DR cells was “much lower” in each case. Further, the “resistance ratio (RI) of the IC50 in drug‐resistant cells compared to the IC50 in parental cells” value in test [1] is reported as “≈ 4”.
Take `CCN(c1cc(C#CCN2CCOCC2)cc(C(=O)NCc2c(C)cc(C)[nH]c2=O)c1C)[C@H]1CC[C@H](N(C)CCOC)CC1` [EPZ011989]: the “sensitivity of resistant cells compared to the parental cells” value in test [2] is reported as “more sensitive”.
In the case of `CC[C@H](C)n1cc(C)c2c(C(=O)NCc3c(C)cc(C)[nH]c3=O)cc(-c3ccc(N4CCNCC4)nc3)cc21` [GSK126], the “HIF‐1α protein levels” value in the test on HIF‐1α is reported as “significantly higher levels of HIF‐1α protein”. Moreover, the apoptotic cell population result in the test on A549/DR cells and in the test on H460/DR cells was “much lower” in each case. Moreover, the “luciferase activity in U251” value in the test with HIF‐1 is “promoted luciferase activity”. Moreover, in test [2], the “sensitivity of resistant cells compared to the parental cells” value is on record as “more sensitive”. Besides, the “resistance ratio (RI) of the IC50 in drug‐resistant cells compared to the IC50 in parental cells” value in test [1] is given as “≈ 4”.
In the case of `CCN(c1cc(-c2ccc(CN3CCOCC3)cc2)cc(C(=O)NCc2c(C)cc(C)[nH]c2=O)c1C)C1CCOCC1` [EPZ6438], the “luciferase activity in U251” value in the test with HIF‐1 was “promoted luciferase activity”. The “sensitivity of resistant cells compared to the parental cells” value in test [2] is recorded as “more sensitive”.
